Source: publication PMC11992225, “Antibacterial compounds against non-growing and intracellular bacteria” (npj Antimicrobials and Resistance, 2025)
pIC50: −log10 of the molar value.

How the values were obtained:
[1] = tested on: non-growing P. aeruginosa DSM1117; experiment: Dose-dependent killing analysis (CFU spot-plating) of stationary-phase P. aeruginosa; format: cell-based, Pseudomonas aeruginosa; conditions: for reduction of bacterial counts, non-growing P. aeruginosa: at 2.5 µM, 1:4 CA-MHB pH 7.4, 24 h treatment; for killing, average Δlog10(CFU/ml) / log10(CFU/ml) after treatment, replicate 1 / log10(CFU/ml) after treatment, replicate 2 / log10(CFU/ml) after treatment, replicate 3: P. aeruginosa
Description: The cultures were grown and treated for 24 h in 1:4 CA-MHB (pH 7.4).
(§1) For survival analysis, bacteria were cultivated as described for the dose–response dilution-regrowth assay. Assays with UPEC were conducted at the CBCS screening facility using 96-well plates with a 200 μl sample volume, and compounds were dispensed using the Echo® (Labcyte) system. P. aeruginosa and S. aureus samples were treated according to the protocol used for the dilution-regrowth experiments. Treated samples were serially diluted 10-fold in PBS, and 10 μl drops were spot-plated onto rectangular LB agar plates using either a Beckman NXP robot (for UPEC) or an Integra VIAFLO96 electronic pipette (for P. aeruginosa and S. aureus). The LB agar plates were incubated overnight at 37 °C and scanned. Colonies were counted at the spots of the lowest dilution where individual colonies could be accurately distinguished. Each colony was manually marked on a separate image layer using the GNU Image Manipulation Program, and counted using NIST’s Integrated Colony Enumerator (NICE 1.4) software. The experiments were performed in three biological replicates.

[2] = tested on: intracellular S. flexneri 5a M90T in TC7 cells; experiment: microbe, parasite or virus in culture; format: cell-based, Shigella flexneri; conditions: for pIC50: Shigella flexneri, TC7, 14 h; for Fluorescence intensity (RFU), Mean, 2 x MIC / Fluorescence intensity (RFU), Mean, 4 x MIC / Fluorescence intensity (RFU), Mean, 8 x MIC / Fluorescence intensity (RFU), Mean, 16 x MIC / Fluorescence intensity (RFU), Mean, 32 x MIC / Fluorescence intensity (RFU), Mean, MIC / Fluorescence intensity (RFU), Mean, 0.0625 x MIC / Fluorescence intensity (RFU), Mean, 0.125 x MIC / Fluorescence intensity (RFU), Mean, 0.25 x MIC / Fluorescence intensity (RFU), Mean, 0.5 x MIC: TC7 cells infected with GFP-expressing S. flexneri, 14 h treatment
Text: Nonproliferating bacterial pathogens frequently inhabit intracellular environments, but establishing relevant infection models for high-throughput testing is challenging. Therefore, we firstly tested ability of the hit compounds to cross the eukaryotic cytoplasmic membrane barrier and inhibit growth of S. flexneri within the cytoplasm of the TC7 human colon adenocarcinoma cell line[59]. To this end, we developed a new, fluorescence-based method that enables real-time monitoring of growth of intracellular Shigella. We used S. flexneri 5a M90T strain producing the AfaE adhesin that enhances bacterial adhesion to epithelial cells and allows synchronization of invasion. The strain was further modified to constitutively express super-folder GFP (sfGFP), which enables monitoring bacterial growth by fluorescence measurement. The epithelial cells were grown to confluence and infected with bacteria at an MOI (multiplicity of infection) of 50. […] Following bacterial adhesion and invasion, the cells were incubated with varying concentrations of the hit compounds and intracellular bacterial growth was tracked by measuring green fluorescence.
The cells were split using trypsin, seeded in 96-well plates for infection, and grown to confluence, corresponding to approximately 40,000 cells per well.
A single colony of S. flexneri was inoculated into TSB supplemented with 50 μg/ml spectinomycin and incubated overnight at 37°C with agitation. The overnight culture was diluted 1:200 in fresh TSB, and the bacteria were grown at 37 °C until the OD600 reached 0.3–0.4, corresponding to approximately 2 × 10^7 CFU/ml. Bacteria were pelleted by centrifugation, washed twice with sterile PBS, and resuspended in infection solution (serum-free DMEM supplemented with 20 mM HEPES, pH 7.4). Just prior to infection, the medium was withdrawn, and the cells were washed twice with sterile PBS. The bacterial inoculum (MOI 50, 2 × 10^7 CFU/ml) was added to all wells except the no-infection control. The plates were incubated at room temperature for 15 min to allow bacterial adhesion, followed by a 1 h incubation at 37 °C with 5% CO2 to facilitate bacterial invasion.
Twofold serial dilutions of the drugs were prepared in infection solution containing 50 μg/ml gentamicin in a 96-well plate. After the invasion period, the bacterial inoculum was removed, and the serial dilutions of the drugs were added to the wells, except for the no-drug control. […] […] The experiments were performed in triplicates on separate days.
Statistical significance of the drug effects was assessed using a one-way ANOVA followed by Dunnett’s test, comparing each treatment to the drug-free control. Statistical significance of the differences in chemical characteristics between the hit compounds and the Prestwick library was assessed using a Mann–Whitney test. Statistical significance was set at P ≤ 0.05. A five-parameter logistic equation was used for asymmetric sigmoidal curve fitting and for EC50 and IC50 determination. The Venn diagram in Fig. 1F was prepared using BioVenn web application. Characteristics of the chemical and physical properties of Prestwick library compounds were obtained from Supplementary Table S1 from reference. Characteristics of the hit compounds not included in the Prestwick library were retrieved from the PubChem database.

[3] = tested on: non-growing UPEC CFT073; experiment: Dose-dependent killing analysis (CFU spot-plating) of stationary-phase UPEC; format: cell-based, Escherichia coli; conditions: E. coli in LPM (pH 5.5)
Description: To differentiate between these scenarios, we used CFU counting by agar plating to assess the bactericidal effect on non-growing bacteria. […] Conversely, if no significant reduction in CFU is observed, the regrowth delay is due to PAE without killing. […] Fluoroquinolones are known to cause PAE after treatment of growing bacterial cultures.
as §1

## CC1Sc2c(C(=O)O)c(=O)c3cc(F)c(N4CCNCC4)cc3n21 (stereo not drawn) [Ulifloxacin]
[1]; at 0.5 µM, 24 h treatment
  reduction of bacterial counts, stationary phase P. aeruginosa: more than four
[1]
  reduction of bacterial counts, non-growing P. aeruginosa: more than four
[2]
  pIC50: 7.00
  Fluorescence intensity (RFU), Mean, 2 x MIC: 6924.86 RFU
  Fluorescence intensity (RFU), Mean, 4 x MIC: 4362.58 RFU
  Fluorescence intensity (RFU), Mean, 8 x MIC: 3208.03 RFU
  Fluorescence intensity (RFU), Mean, 16 x MIC: 2720.44 RFU
  Fluorescence intensity (RFU), Mean, 32 x MIC: 2065.19 RFU
  Fluorescence intensity (RFU), Mean, MIC: 8271.31 RFU

## CC(=O)[O][Pt]([NH2])([Cl])([Cl])([NH]C1CCCCC1)[O]C(C)=O [Satraplatin]
[1]; drug concentration 0.1
  killing, average Δlog10(CFU/ml): -0.012 log10(CFU/ml)
  log10(CFU/ml) after treatment, replicate 1: 8.699 log10(CFU/ml)
  log10(CFU/ml) after treatment, replicate 2: 9.301 log10(CFU/ml)
  log10(CFU/ml) after treatment, replicate 3: 8.699 log10(CFU/ml)
[1]; drug concentration 0.5
  killing, average Δlog10(CFU/ml): 0.420 log10(CFU/ml)
  log10(CFU/ml) after treatment, replicate 1: 8.477 log10(CFU/ml)
  log10(CFU/ml) after treatment, replicate 2: 8.845 log10(CFU/ml)
  log10(CFU/ml) after treatment, replicate 3: 8.079 log10(CFU/ml)
[1]; drug concentration 2.5
  killing, average Δlog10(CFU/ml): 1.880 log10(CFU/ml)
  log10(CFU/ml) after treatment, replicate 1: 7.845 log10(CFU/ml)
  log10(CFU/ml) after treatment, replicate 2: 8.477 log10(CFU/ml)
  log10(CFU/ml) after treatment, replicate 3: 4.699 log10(CFU/ml)
[1]; drug concentration 10
  killing, average Δlog10(CFU/ml): 3.310 log10(CFU/ml)
  log10(CFU/ml) after treatment, replicate 1: 5.000 log10(CFU/ml)
  log10(CFU/ml) after treatment, replicate 2: 6.778 log10(CFU/ml)
  log10(CFU/ml) after treatment, replicate 3: 4.954 log10(CFU/ml)
[3]; drug concentration 0.25
  killing, average Δlog10(CFU/ml): 0.465 log10(CFU/ml)
  log10(CFU/ml) after treatment, replicate 1: 6.778 log10(CFU/ml)
  log10(CFU/ml) after treatment, replicate 2: 6.431 log10(CFU/ml)
  log10(CFU/ml) after treatment, replicate 3: 7.447 log10(CFU/ml)
[3]; drug concentration 0.5
  killing, average Δlog10(CFU/ml): 0.567 log10(CFU/ml)
  log10(CFU/ml) after treatment, replicate 1: 7.041 log10(CFU/ml)
  log10(CFU/ml) after treatment, replicate 2: 6.079 log10(CFU/ml)
  log10(CFU/ml) after treatment, replicate 3: 7.230 log10(CFU/ml)
[3]; drug concentration 1
  killing, average Δlog10(CFU/ml): 0.828 log10(CFU/ml)
  log10(CFU/ml) after treatment, replicate 1: 6.778 log10(CFU/ml)
  log10(CFU/ml) after treatment, replicate 2: 6.176 log10(CFU/ml)
  log10(CFU/ml) after treatment, replicate 3: 6.613 log10(CFU/ml)
[3]; drug concentration 2.5
  killing, average Δlog10(CFU/ml): 1.360 log10(CFU/ml)
  log10(CFU/ml) after treatment, replicate 1: 6.954 log10(CFU/ml)
  log10(CFU/ml) after treatment, replicate 2: 5.903 log10(CFU/ml)
  log10(CFU/ml) after treatment, replicate 3: 5.114 log10(CFU/ml)
[3]; drug concentration 5
  killing, average Δlog10(CFU/ml): 1.695 log10(CFU/ml)
  log10(CFU/ml) after treatment, replicate 1: 6.146 log10(CFU/ml)
  log10(CFU/ml) after treatment, replicate 2: 5.778 log10(CFU/ml)
  log10(CFU/ml) after treatment, replicate 3: 5.041 log10(CFU/ml)
[3]; drug concentration 10
  killing, average Δlog10(CFU/ml): 2.758 log10(CFU/ml)
  log10(CFU/ml) after treatment, replicate 1: 5.778 log10(CFU/ml)
  log10(CFU/ml) after treatment, replicate 2: =<4 log10(CFU/ml)
  log10(CFU/ml) after treatment, replicate 3: =<4 log10(CFU/ml)
[2]
  Fluorescence intensity (RFU), Mean, 0.0625 x MIC: 9460.97 RFU
  Fluorescence intensity (RFU), Mean, 0.125 x MIC: 9284.03 RFU
  Fluorescence intensity (RFU), Mean, 0.25 x MIC: 8685.25 RFU
  Fluorescence intensity (RFU), Mean, 0.5 x MIC: 7328.94 RFU
  Fluorescence intensity (RFU), Mean, 2 x MIC: 2689 RFU
  Fluorescence intensity (RFU), Mean, MIC: 4882 RFU

## O=C(O)c1cn(C2CC2)c2cc(N3CCNCC3)c(F)cc2c1=O [Ciprofloxacin]
[1]
  reduction of bacterial counts, non-growing P. aeruginosa: more than four
[2]
  pIC50: 7.27
  Fluorescence intensity (RFU), Mean, 0.5 x MIC: 6160.67 RFU
  Fluorescence intensity (RFU), Mean, 2 x MIC: 3512.33 RFU
  Fluorescence intensity (RFU), Mean, 4 x MIC: 3078.86 RFU
  Fluorescence intensity (RFU), Mean, 8 x MIC: 2399.75 RFU
  Fluorescence intensity (RFU), Mean, 16 x MIC: 1781.06 RFU
  Fluorescence intensity (RFU), Mean, 32 x MIC: 1734.42 RFU
  Fluorescence intensity (RFU), Mean, MIC: 4637.36 RFU

## CO[C@H]1/C=C/O[C@@]2(C)Oc3c(C)c(O)c4c(O)c(c(/C=N/N5CCN(C)CC5)c(O)c4c3C2=O)NC(=O)/C(C)=C\C=C\[C@H](C)[C@H](O)[C@@H](C)[C@@H](O)[C@@H](C)[C@H](OC(C)=O)[C@@H]1C [Rifampicin]
[2]
  pIC50: 5.49
  Fluorescence intensity (RFU), Mean, 0.0625 x MIC: 10229.8 RFU
  Fluorescence intensity (RFU), Mean, 0.125 x MIC: 10528.2 RFU
  Fluorescence intensity (RFU), Mean, 0.25 x MIC: 10619.3 RFU
  Fluorescence intensity (RFU), Mean, 0.5 x MIC: 4149.04 RFU
  Fluorescence intensity (RFU), Mean, 2 x MIC: 1695.78 RFU
  Fluorescence intensity (RFU), Mean, 4 x MIC: 1392.42 RFU
  Fluorescence intensity (RFU), Mean, 8 x MIC: 1299.69 RFU
  Fluorescence intensity (RFU), Mean, 16 x MIC: 1165.58 RFU
  Fluorescence intensity (RFU), Mean, 32 x MIC: 1042.53 RFU
  Fluorescence intensity (RFU), Mean, MIC: 2886.31 RFU

## C[C@H]1NCc2cc(-c3ccc4c(=O)c(C(=O)O)cn(C5CC5)c4c3OC(F)F)ccc21 [Garenoxacin]
[2]
  pIC50: 7.51
  Fluorescence intensity (RFU), Mean, 0.25 x MIC: 6643.04 RFU
  Fluorescence intensity (RFU), Mean, 0.5 x MIC: 5273 RFU
  Fluorescence intensity (RFU), Mean, 2 x MIC: 3944.5 RFU
  Fluorescence intensity (RFU), Mean, 4 x MIC: 3336.42 RFU
  Fluorescence intensity (RFU), Mean, 8 x MIC: 2806.31 RFU
  Fluorescence intensity (RFU), Mean, 16 x MIC: 2331.56 RFU
  Fluorescence intensity (RFU), Mean, 32 x MIC: 1840.28 RFU
  Fluorescence intensity (RFU), Mean, MIC: 3888.86 RFU
